Experimental data: US20250154525A1, “PLANT VIRUS MOVEMENT PROTEINS AND METHODS OF USING SAME” (Molecular Transfer, Inc., priority 2016, published 2025)

Columns and labels:
HeLa Cells [1] = experiment: GFP plasmid transfection with DOTMA/DOPE plus surface ligand peptide, fluorescent plate reader (Example 1); assay type: cell-based; details: DOTMA/DOPE + peptide linked to R12 or K16; EF1Alpha eGFP plasmid; 42 hours
HuVec Cells = experiment: as above; assay type: cell-based; details: DOTMA/DOPE + peptide linked to R12 or K16; EF1Alpha eGFP plasmid; 42 hours
Procedure, shortened: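 HuVEC cells in 96 well plates at 70% confluence were transfected with EF1Alpha eGFP plasmid using a 1:1 molar DOTMA/DOPE lipid mixed with a surface ligand peptide carrying a covalently attached nucleic acid binding moiety. Complexes formed for 10 minutes, 0.01 mL went to each well, cells were incubated 42 hours at 37° C., and fluorescence was read on a plate reader.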

Human Fibroblast Cells = experiment: as above; assay type: cell-based; details: DOTMA/DOPE + peptide linked to R12 or K16; EF1Alpha eGFP plasmid; 42 hours
Procedure, shortened: (§1)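 DOTMA/DOPE (1:1 molar) plus peptide bearing a poly-Arg or poly-Lys tag was complexed 10 min with EF1alpha eGFP plasmid in OptiMEM, then added to 70%-confluent cells (0.01 mL fibroblasts; 0.02 mL C2C12, Jurkat). After 42 h at 37 °C, GFP was read by plate reader and compared with DOTMA without ligand.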

Jurkat Cells = experiment: as above; assay type: cell-based; details: DOTMA/DOPE + peptide linked to R12 or K16; EF1Alpha eGFP plasmid; 42 hours
Procedure, shortened: as §1

NL-1 iPS Cells = experiment: as above; assay type: cell-based; details: DOTMA/DOPE + peptide linked to R12 or K16; EF1Alpha eGFP plasmid; 42 hours
C2C12 Cells = experiment: as above; assay type: cell-based, mouse; details: DOTMA/DOPE + peptide linked to R12 or K16; EF1Alpha eGFP plasmid; 42 hours
Procedure, shortened: as §1

HeLa Cells [2] = experiment: GFP transfection with DOTMA/SEQ ID NO: 72 (fusogenic peptide)/peptide compared with Lipofectamine 2000; assay type: cell-based
Procedure, shortened: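 DOTMA/DOPE (1:1 molar) lipid mixed with polyarginine- or polylysine-tagged cell-surface-ligand peptide, complexed 10 min with EF1alpha eGFP plasmid at 10 μg/mL in OptiMEM, fusogenic peptide at 0.1 mg/mL final; HeLa cells ~70% confluent given 0.01 mL complex. GFP read by fluorescence plate reader and microscopy (% cells transfected) after 42 h at 37° C; Lipofectamine 2000 as comparator.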

some examined cell types = experiment: Summary of Example 1: transfection expression and % cells transfected over the no peptide control; assay type: cell-based; details: on some examined cell types
Procedure, shortened: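 Cells at 70% confluence received DNA complexes of EF1Alpha eGFP plasmid with DOTMA/DOPE (1:1) plus oligo-Arg- or oligo-Lys-tagged peptide ligands, formed 10 min at room temperature. After 42 h at 37 °C, 5% CO2, GFP read by plate reader and % transfected cells judged microscopically, relative to lipid without peptide.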

[3] = 0.1 μL of DOTMA/SEQ ID NO: 72/Peptide in well of a 96 well plate
[4] = 0.2 μL of DOTMA/SEQ ID NO: 72/Peptide in well of a 96 well plate
[5] = 0.3 μL of DOTMA/SEQ ID NO: 72/Peptide in well of a 96 well plate
[6] = 0.4 μL of DOTMA/SEQ ID NO: 72/Peptide in well of a 96 well plate

Row | Substance | Relative Fluorescence of Transfection of HeLa Cells (RF) (HeLa Cells [1]) | Relative Fluorescence of Transfection of HuVec Cells (RF) (HuVec Cells) | Relative Fluorescence of Transfection of Human Fibroblast Cells (RF) (Human Fibroblast Cells) | Relative Fluorescence of Transfection of Jurkat Cells (RF) (Jurkat Cells) | Relative Fluorescence of Transfection of NL-1 iPS Cells (RF) (NL-1 iPS Cells) | Relative Fluorescence of Transfection of C2C12 Cells (RF) (C2C12 Cells) | Relative Fluorescence DOTMA/SEQ ID NO: 72/Peptide, HeLa Cells (RF) (HeLa Cells [2]; [3]) | Relative Fluorescence DOTMA/SEQ ID NO: 72/Peptide, HeLa Cells (RF) (HeLa Cells [2]; [4]) | Relative Fluorescence DOTMA/SEQ ID NO: 72/Peptide, HeLa Cells (RF) (HeLa Cells [2]; [5]) | Relative Fluorescence DOTMA/SEQ ID NO: 72/Peptide, HeLa Cells (RF) (HeLa Cells [2]; [6]) | transfection expression and % cells transfected over the no peptide control (some examined cell types)
1 | 452 (CNYYSNSYSFWLASLNPER) [compound 452] | 13888 | 1841 | 2779 | 2554 | 10349 | 21798 | 6276 | 12671 | 12047 | 10918 | increased transfection expression and the % cells transfected
2 | 365 (ISRCQVCMKKRH) [compound 365] | 36093 | 14764 | 5219 | 5298 | 6364 | 5390 | 26620 | 43775 | 36054 | 21540 | increased transfection expression and the % cells transfected
3 | 358 (GHRGPTGRPGKRGKQGQKGDS) [compound 358] | 15132 | 25398 | 5665 | 18820 | 21956 | 2271 | 12331 | 12683 | 13686 | 11097 | increased transfection expression and the % cells transfected
4 | 351 (LNRQELFPFG) [compound 351] | 12279 | 15379 | 8061 | 9730 | 24646 | 3530 | 7678 | 11499 | 10575 | 8791 | increased transfection expression and the % cells transfected
5 | 219 (RKRLQVQLSIRT) [compound 219] | 13721 | 6237 | 7389 | 10762 | 5770 | 1346 | 12135 | 13841 | 13531 | 11712 | increased transfection expression and the % cells transfected
6 | 350 (SIGFRGDGQTC) [compound 350] | 13313 | 13163 | 7105 | 9184 | 19132 | 2631 | 24092 | 23238 | 19802 | 22255 | increased transfection expression and the % cells transfected
7 | 353 (KKQRFRHRNRKGYRSQ) [compound 353] | 29119 | 8772 | 8653 | 11107 | 9248 | 4291 | 36315 | 44772 | 36882 | 25802 | increased transfection expression and the % cells transfected
8 | 341 (LRAHAVDVNG) [compound 341] | 4108 | 15906 | 2284 | 18042 | 20446 | 2141 | 6406 | 7469 | 8020 | 7546 | increased transfection expression and the % cells transfected
9 | 454 (TGLSCLQRFTTM) [compound 454] | 34550 | 13336 | 7568 | 8224 | 18100 | 9280 | 34033 | 37099 | 27412 | 16023 | increased transfection expression and the % cells transfected
10 | 367 (TDIPPCPHGWISLWK) [compound 367] | 39008 | 13354 | 10036 | 4365 | 17545 | 16207 | 10427 | 21411 | 23001 | 17529 | increased transfection expression and the % cells transfected
